The values that follow come from publication PMC10562900 (RSC Advances, 2023).

Assay type in all cases: biochemical
Experiment [1] addresses T1, h-e5′NT (Homo sapiens, UniProt P21589).
T1 sequence (P21589 27-574): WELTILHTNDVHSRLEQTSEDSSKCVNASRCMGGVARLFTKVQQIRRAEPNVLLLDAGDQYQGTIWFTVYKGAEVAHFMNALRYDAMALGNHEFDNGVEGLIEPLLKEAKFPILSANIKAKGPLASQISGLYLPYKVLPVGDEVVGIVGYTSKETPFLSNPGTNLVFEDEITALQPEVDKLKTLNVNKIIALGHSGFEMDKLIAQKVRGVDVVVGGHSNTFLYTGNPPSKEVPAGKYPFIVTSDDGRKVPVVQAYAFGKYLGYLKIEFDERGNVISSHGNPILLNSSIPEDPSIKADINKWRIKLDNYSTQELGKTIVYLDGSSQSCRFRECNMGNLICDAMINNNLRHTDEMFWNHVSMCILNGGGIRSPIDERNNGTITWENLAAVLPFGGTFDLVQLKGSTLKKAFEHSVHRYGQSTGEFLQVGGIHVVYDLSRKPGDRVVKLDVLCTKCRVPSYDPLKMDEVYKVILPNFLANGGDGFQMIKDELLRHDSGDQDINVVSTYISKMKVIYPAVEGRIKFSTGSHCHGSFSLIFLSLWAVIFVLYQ
In words: CD73.

The next experiment concerns the target T2, h-TNAP (Homo sapiens, UniProt P05186).
T2 sequence (P05186 18-524): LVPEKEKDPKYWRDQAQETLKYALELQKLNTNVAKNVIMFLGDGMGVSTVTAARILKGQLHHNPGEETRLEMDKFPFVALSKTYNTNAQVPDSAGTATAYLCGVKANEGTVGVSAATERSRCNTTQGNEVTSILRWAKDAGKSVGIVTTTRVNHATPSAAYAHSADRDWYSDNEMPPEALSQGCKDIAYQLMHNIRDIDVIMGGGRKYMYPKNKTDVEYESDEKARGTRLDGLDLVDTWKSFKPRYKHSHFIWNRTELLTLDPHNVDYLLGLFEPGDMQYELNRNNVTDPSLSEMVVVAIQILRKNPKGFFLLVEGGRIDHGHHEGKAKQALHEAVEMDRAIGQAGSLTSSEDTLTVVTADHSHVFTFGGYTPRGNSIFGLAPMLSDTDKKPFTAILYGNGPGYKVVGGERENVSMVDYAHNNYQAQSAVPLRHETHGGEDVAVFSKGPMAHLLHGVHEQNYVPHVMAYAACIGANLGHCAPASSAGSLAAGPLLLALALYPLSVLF
The experiment is described as follows: h-TNAP inhibition assay.

For experiment [2], the target named is T3, r-e5′NT (Rattus norvegicus, UniProt P21588).
T3 sequence (P21588 29-576): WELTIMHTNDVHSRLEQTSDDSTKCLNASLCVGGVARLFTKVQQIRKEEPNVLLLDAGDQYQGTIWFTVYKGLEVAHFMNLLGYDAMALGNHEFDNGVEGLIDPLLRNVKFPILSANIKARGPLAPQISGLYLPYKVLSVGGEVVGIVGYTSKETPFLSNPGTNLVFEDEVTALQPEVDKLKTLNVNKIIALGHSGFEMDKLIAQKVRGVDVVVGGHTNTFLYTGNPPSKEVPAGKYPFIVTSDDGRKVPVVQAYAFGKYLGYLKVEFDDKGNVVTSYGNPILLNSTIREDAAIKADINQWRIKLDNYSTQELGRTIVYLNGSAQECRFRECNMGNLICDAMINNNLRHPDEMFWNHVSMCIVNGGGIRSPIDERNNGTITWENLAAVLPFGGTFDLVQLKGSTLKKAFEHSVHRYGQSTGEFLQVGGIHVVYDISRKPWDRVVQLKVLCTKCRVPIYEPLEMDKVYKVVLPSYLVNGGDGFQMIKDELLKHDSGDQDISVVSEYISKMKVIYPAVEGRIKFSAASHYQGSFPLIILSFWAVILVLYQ
The experiment is described as follows: CD73.

Experiment [3] addresses T1, h-e5′NT. The experiment is described as follows: Enzyme kinetic studies, h-e5′NT. The settings on record: Lineweaver–Burk.
The target of experiment [4] is T3, r-e5′NT. The experiment is described as follows: Enzyme kinetic studies, r-e5′NT. To be noted: Lineweaver–Burk.

As a reminder, the IC50 is the midpoint of a concentration-inhibition curve. With `O=C(Cc1c[nH]c2ccccc12)Nc1ccccc1OS(=O)(=O)c1ccc(F)cc1` [5c, 2-(2-(1H-indol-3-yl)acetamido)phenyl 4-fluorobenzenesulfonate], the IC50 was 370 ± 30 nM at h-e5′NT [1], 1480 ± 20 nM on h-TNAP and 1660 ± 40 nM against r-e5′NT [2]. In addition, at h-e5′NT [3], the “Mode of inhibition h-e5′NT” value is given as “un-competitive”.
As for `O=C(Cc1c[nH]c2ccccc12)Nc1ccccc1OS(=O)(=O)c1ccc(I)cc1` [5i, 2-(2-(1H-indol-3-yl)acetamido)phenyl 4-iodobenzenesulfonate], the 50% inhibitory concentration (IC50) at h-e5′NT [1] is 4850 ± 550 nM; on h-TNAP it was 2270 ± 240 nM; on r-e5′NT [2], 810 ± 50 nM. For the same compound, at r-e5′NT [4], the “Mode of inhibition r-e5′NT” value is on record as “competitive”.
